Measurements from article PMC11452043, “In vitro 5-LOX inhibitory and antioxidant potential of isoxazole derivatives” (PLOS ONE, 2024).

What was measured:
tumor growth = details: in vivo and in vitro; cited from earlier work
COX = details: cited from earlier work
5-LOX = details: cited from earlier work
[1] = target: T1, 5-lipoxygenase (5-LOX) enzyme (Homo sapiens, UniProt P09917); test: 5-LOX inhibitory assay; format: biochemical; details: for inhibition at 62.5 µg/mL: 62.5 μg/ml; for inhibition at 62.5 µg/mL / inhibition at 125 µg/mL / inhibition at 250 µg/mL / inhibition at 500 µg/mL / inhibition at 1000 µg/mL: mean ± SEM, n = 3, read-out: 5-LOX percent inhibition; for inhibition at 125 µg/mL: 125 μg/ml; for inhibition at 250 µg/mL: 250 μg/ml; for inhibition at 500 µg/mL: 500 μg/ml; for inhibition at 1000 µg/mL: 1000 μg/ml
T1 sequence (P09917 1-674): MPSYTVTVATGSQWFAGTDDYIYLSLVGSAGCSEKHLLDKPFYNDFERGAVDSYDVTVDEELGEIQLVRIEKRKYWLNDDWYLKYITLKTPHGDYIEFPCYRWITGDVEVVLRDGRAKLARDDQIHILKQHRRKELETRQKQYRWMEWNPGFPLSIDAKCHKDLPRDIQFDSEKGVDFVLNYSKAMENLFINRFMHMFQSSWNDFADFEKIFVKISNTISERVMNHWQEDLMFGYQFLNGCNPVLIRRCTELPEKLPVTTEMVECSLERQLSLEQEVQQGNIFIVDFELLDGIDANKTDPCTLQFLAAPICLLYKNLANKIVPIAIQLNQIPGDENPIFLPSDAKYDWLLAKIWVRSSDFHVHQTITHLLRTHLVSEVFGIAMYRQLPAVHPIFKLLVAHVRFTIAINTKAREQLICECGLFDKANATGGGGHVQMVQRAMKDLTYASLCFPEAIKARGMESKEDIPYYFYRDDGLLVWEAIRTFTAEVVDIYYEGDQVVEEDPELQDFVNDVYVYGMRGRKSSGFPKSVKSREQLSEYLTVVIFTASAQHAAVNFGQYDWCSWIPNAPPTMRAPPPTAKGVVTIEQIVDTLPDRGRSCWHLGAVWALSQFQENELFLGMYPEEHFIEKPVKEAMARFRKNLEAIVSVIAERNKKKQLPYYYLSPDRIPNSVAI
Method: The synthesized Isoxazole derivatives will be investigated for 5-LOX Inhibition studies as per established protocols of Wisastra and his co researchers. In this experiment, residual enzyme potential will be utilized to measure the degree of enzyme inhibition after 10 to 15 minutes of inhibitor’s incubation at 25°C. The reaction involving the conversion of linoleic acid, a substrate of lipoxygenase, into hydroperoxy-octadecadienoate (HPOD) will be employed as a means of quantifying the said reaction. The variation in the rate of absorption will be determined by employing a UV-visible spectrophotometer set at a wavelength of 234 nm. A 50 mM Tris buffer containing 2 mM EDTA and 2 mM CaCl2 was used as the assay buffer in this experiment. The buffer has a pH of 7.5. Following this, a buffer solution was employed to dilute the 5-lipoxygenase (5-LOX) enzyme at a concentration of 20,000 units per millilitre (U/mL) at a ratio of 1:4000. The 100 mM inhibitor was diluted using the test buffer following the administration of dimethyl sulfoxide (DMSO) for its dissolution. The content of linoleic acid was reduced to 20 mg/ml through dilution using ethyl alcohol. To accomplish this, 1 mL of the enzyme solution (1: 4000) will be combined with 100 μL of 2 mM adenosine triphosphate (ATP), 100 μL of the inhibitor (1 mM), and […] of Tris buffer while incubated for 10 min. Following approximately 10 seconds of the substrate and the enzyme mixing together, 10 μL of a 20 mM substrate solution will be added to the mixture. At that point, the changing rate of the substrate will be determined. The response rate will be utilized as a positive control without blockers. In this experiment, montelukast will be utilized as the reference medicine.

[2] = DPPH free radical scavenging (antioxidant) assay; details: for DPPH percent inhibition: mean ± SEM, n = 3
Method: The previously outlined methodology will be employed to evaluate the compounds’ antioxidant ability, as determined by the processes of the 1,1-diphenyl, 2-picrylhydrazyl (DPPH) free radical. The experimental specimens will be subjected to dilution using different quantities, spanning from 62.5 to 1000 μg/ml, and afterwards introduced into a methanolic solution of DPPH at a concentration of 0.004%. At 517 nm, the absorbance will be determined by a UV spectrophotometer following a 30-minute duration. The scavenging capability of ascorbic acid will be quantified by employing the equation: DPPH=[(A0−A1)/A0]100 Whereas: […]
Every test was carried out three times, and the median inhibitory dosages (IC50) were determined. The drawing of inhibition graphs was performed by GraphPad Prism software-GraphPAD, San Diego, California, USA.
The IC50 values were determined from dosage response curve using Microsoft Excel program.

paw edema = details: dose dependent manner; cited from earlier work

COc1cc(-c2cc(-c3sccc3C)no2)cc(OC)c1OC [Compound 65]
inhibition on tumor growth (tumor growth): excellent inhibition | activity of COX (COX): considerably reduce | activity of 5-LOX (5-LOX): considerably reduce

CC(C)(O)c1ccccc1CC[C@@H](SCC1(CC(=O)O)CC1)c1cccc(/C=C/c2ccc3ccc(Cl)cc3n2)c1 [Montelukast, reference compound]
IC50 [1]: 21.8 µM | inhibition at 62.5 µg/mL [1]: 71.8 ± 0.9% | inhibition at 125 µg/mL [1]: 76.4 ± 1.2% | inhibition at 250 µg/mL [1]: 81.6 ± 1.63% | inhibition at 500 µg/mL [1]: 87.5 ± 0.9% | inhibition at 1000 µg/mL [1]: 94.1 ± 1.04%

O=C1O[C@H]([C@@H](O)CO)C(O)=C1O [Ascorbic acid, reference compound]
IC50 [2]: 17.9 µM | DPPH percent inhibition ([2]; 62.5 μg/mL): 77.72±0.59% | DPPH percent inhibition ([2]; 125 μg/mL): 79.37±0.71% | DPPH percent inhibition ([2]; 250 μg/mL): 82.25±0.72% | DPPH percent inhibition ([2]; 500 μg/mL): 87.65±0.42% | DPPH percent inhibition ([2]; 1000 μg/mL): 92.51±0.69%

COc1ccc(C2NC(=O)NC(C(F)(F)F)=C2c2cc(-c3ccco3)on2)cc1 (stereo not shown) [Compound C6]
IC50 [1]: 3.67 µM | inhibition at 62.5 µg/mL [1]: 81.9 ± 0.96% | inhibition at 125 µg/mL [1]: 85.08 ± 0.47% | inhibition at 250 µg/mL [1]: 88.8 ± 1.26% | inhibition at 500 µg/mL [1]: 91.4 ± 0.2% | inhibition at 1000 µg/mL [1]: 94.6 ± 1.12% | IC50 [2]: 18.9 µM | DPPH percent inhibition ([2]; 62.5 μg/mL): 73.72±0.64% | DPPH percent inhibition ([2]; 125 μg/mL): 78.42±0.66% | DPPH percent inhibition ([2]; 250 μg/mL): 83.53±0.45% | DPPH percent inhibition ([2]; 500 μg/mL): 88.45±0.49% | DPPH percent inhibition ([2]; 1000 μg/mL): 91.63±0.55%

CCO/C(C)=N/c1onc(C)c1C(=O)NCc1ccc(OC)cc1OC [Compound 64]
inhibition of paw edema (paw edema): strongly inhibited
